Test results published in patent US20240239752A1, “BICYCLIC HETEROAROMATIC INHIBITORS OF KLK5” (BioCryst Pharmaceuticals, Inc., priority 2021, published 2024).

target: T1, recombinant human KLK5 (Homo sapiens, UniProt Q9Y337); experiment: Kallikrein (KLK) 5 enzymatic assay (Boc-VPR-AMC fluorogenic substrate); assay type: biochemical; conditions: recombinant human KLK5 0.1 μg/well, Boc-VPR-AMC 100 μM, pH 7.5, room temperature, 1% DMSO; tested a minimum of three times
T1 construct: purchased Novoprotein or R&D Systems C415 or 1108-SE
T1 sequence (Q9Y337 23-293): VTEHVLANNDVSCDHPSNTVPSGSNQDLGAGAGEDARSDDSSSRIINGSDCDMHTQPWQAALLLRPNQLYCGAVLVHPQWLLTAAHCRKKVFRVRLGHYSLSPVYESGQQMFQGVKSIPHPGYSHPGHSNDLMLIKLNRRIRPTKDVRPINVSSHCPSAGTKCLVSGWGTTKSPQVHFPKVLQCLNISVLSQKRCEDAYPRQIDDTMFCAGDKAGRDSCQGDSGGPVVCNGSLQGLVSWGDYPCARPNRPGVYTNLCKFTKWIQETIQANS
Summary of the method: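 Fluorogenic rate assay at pH 7.5 (0.1 M NaH2PO4, 1% DMSO, room temperature), run at least three times per compound. Compound was premixed with 0.1 μg/well recombinant human KLK5 before adding 100 μM Boc-VPR-AMC; AMC release was read at ex 380/em 460 nm, and IC50 derived from inhibition of rate vs DMSO control.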

Compound	IC50 [µM]
Nc1nccc2c(-c3ccc4c(c3)[C@H](Oc3ccccc3CC(=O)O)CC43CCN(CC(=O)O)CC3)cccc12 [Compound 415b, (R)-2-(2-((5-(1-aminoisoquinolin-5-yl)-1′-(carboxymethyl)-2,3-dihydrospiro[indene-1,4′-piperidin]-3-yl)oxy)phenyl)acetic acid]	< 1
CCCN1CCC2(CC1)C[C@@H](Oc1ccccc1CC(=O)O)c1cc(-c3cccc4c(N)nccc34)ccc12 [Compound 417b, (R)-2-(2-((5-(1-aminoisoquinolin-5-yl)-1′-propyl-2,3-dihydrospiro[indene-1,4′-piperidin]-3-yl)oxy)phenyl)acetic acid]	< 1
CCN1CCC2(CC1)C[C@@H](Oc1ccccc1CC(=O)O)c1cc(-c3cccc4c(N)nccc34)ccc12 [Compound 418c, (R)-2-(2-((5-(1-aminoisoquinolin-5-yl)-1′-ethyl-2,3-dihydrospiro[indene-1,4′-piperidin]-3-yl)oxy)phenyl)acetic acid]	< 1
Nc1nccc2ccc(-c3ccc4c(c3)[C@H](Oc3cc(C(F)(F)F)ccc3CC(=O)O)CC4)cc12 [Compound 427c, (R)-2-(2-((6-(1-aminoisoquinolin-7-yl)-2,3-dihydro-1H-inden-1-yl)oxy)-4-(trifluoromethyl)phenyl)acetic acid]	< 1
Nc1nccc2c(-c3ccc4c(c3)[C@H](Oc3cc(C(F)(F)F)ccc3CC(=O)O)CC4)cccc12 [Compound 428b, (R)-2-(2-((6-(1-aminoisoquinolin-5-yl)-2,3-dihydro-1H-inden-1-yl)oxy)-4-(trifluoromethyl)phenyl)acetic acid]	< 1
N#Cc1cccc(CC(=O)O)c1O[C@@H]1CCc2ccc(-c3ccc4ccnc(N)c4c3)cc21 [Compound 429d, (R)-2-(2-((6-(1-aminoisoquinolin-7-yl)-2,3-dihydro-1H-inden-1-yl)oxy)-3-cyanophenyl)acetic acid]	1 to 10
N#Cc1cccc(CC(=O)O)c1O[C@@H]1CCc2ccc(-c3cccc4c(N)nccc34)cc21 [Compound 430b, (R)-2-(2-((6-(1-aminoisoquinolin-5-yl)-2,3-dihydro-1H-inden-1-yl)oxy)-3-cyanophenyl)acetic acid]	1 to 10
COc1ccc(O[C@@H]2CCc3ccc(-c4cccc5c(N)nccc45)cc32)c(CC(=O)O)c1 [Compound 431c, (R)-2-(2-((6-(1-aminoisoquinolin-5-yl)-2,3-dihydro-1H-inden-1-yl)oxy)-5-methoxyphenyl)acetic acid]	< 1
N#Cc1cccc(O[C@@H]2CCc3ccc(-c4ccc5ccnc(N)c5c4)cc32)c1CC(=O)O [Compound 432c, (R)-2-(2-((6-(1-aminoisoquinolin-7-yl)-2,3-dihydro-1H-inden-1-yl)oxy)-6-cyanophenyl)acetic acid]	1 to 10
N#Cc1cccc(O[C@@H]2CCc3ccc(-c4cccc5c(N)nccc45)cc32)c1CC(=O)O [Compound 433b, (R)-2-(2-((6-(1-aminoisoquinolin-5-yl)-2,3-dihydro-1H-inden-1-yl)oxy)-6-cyanophenyl)acetic acid]	< 1
Nc1nccc2ccc(-c3ccc4c(c3)[C@H](Oc3cccc(OC(F)(F)F)c3CC(=O)O)CC4)cc12 [Compound 434c, (R)-2-(2-((6-(1-aminoisoquinolin-7-yl)-2,3-dihydro-1H-inden-1-yl)oxy)-6-(trifluoromethoxy)phenyl)acetic acid]	1 to 10
Nc1nccc2c(-c3ccc4c(c3)[C@H](Oc3cccc(OC(F)(F)F)c3CC(=O)O)CC4)cccc12 [Compound 435b, (R)-2-(2-((6-(1-aminoisoquinolin-5-yl)-2,3-dihydro-1H-inden-1-yl)oxy)-6-(trifluoromethoxy)phenyl)acetic acid]	< 1
CCN1CCC2(CC1)C[C@@H](Oc1ccccc1CC(=O)O)c1cc(-c3ccc4ccnc(N)c4c3)ccc12 [Compound 436b, (R)-2-(2-((5-(1-aminoisoquinolin-7-yl)-1′-ethyl-2,3-dihydrospiro[indene-1,4′-piperidin]-3-yl)oxy)phenyl)acetic acid]	< 1
CC1(C)Cc2ccc(-c3cccc4c(N)nccc34)cc2C1Oc1ccccc1CC(=O)O (stereo not shown) [Compound 437f, 2-(2-((6-(1-aminoisoquinolin-5-yl)-2,2-dimethyl-2,3-dihydro-1H-inden-1-yl)oxy)phenyl)acetic acid]	< 1
CC1(C)Cc2ccc(-c3cccc4c(N)nccc34)cc2C1Oc1cc(F)ccc1CC(=O)O (stereo not shown) [Compound 438c, 2-(2-((6-(1-aminoisoquinolin-5-yl)-2,2-dimethyl-2,3-dihydro-1H-inden-1-yl)oxy)-4-fluorophenyl)acetic acid]	< 1
CC1(C)Cc2ccc(-c3ccc4ccnc(N)c4c3)cc2C1Oc1cc(F)ccc1CC(=O)O (stereo not shown) [Compound 439b, 2-(2-((6-(1-aminoisoquinolin-7-yl)-2,2-dimethyl-2,3-dihydro-1H-inden-1-yl)oxy)-4-fluorophenyl)acetic acid]	1 to 10
COc1ccc(CC(=O)O)c(OC2c3cc(-c4cccc5c(N)nccc45)ccc3CC2(C)C)c1 (stereo not shown) [Compound 440c, 2-(2-((6-(1-aminoisoquinolin-5-yl)-2,2-dimethyl-2,3-dihydro-1H-inden-1-yl)oxy)-4-methoxyphenyl)acetic acid]	< 1
COc1ccc(CC(=O)O)c(OC2c3cc(-c4ccc5ccnc(N)c5c4)ccc3CC2(C)C)c1 (stereo not shown) [Compound 441b, 2-(2-((6-(1-aminoisoquinolin-7-yl)-2,2-dimethyl-2,3-dihydro-1H-inden-1-yl)oxy)-4-methoxyphenyl)acetic acid]	1 to 10
Nc1nccc2c(-c3ccc4c(c3)C(Oc3cc(F)ccc3CC(=O)O)CC43CCCC3)cccc12 (stereo not shown) [Compound 442c, 2-(2-((5′-(1-aminoisoquinolin-5-yl)-2′,3′-dihydrospiro[cyclopentane-1,1′-inden]-3′-yl)oxy)-4-fluorophenyl)acetic acid]	< 1
Nc1nccc2ccc(-c3ccc4c(c3)C(Oc3cc(F)ccc3CC(=O)O)CC43CCCC3)cc12 (stereo not shown) [Compound 443b, 2-(2-((5′-(1-aminoisoquinolin-7-yl)-2′,3′-dihydrospiro[cyclopentane-1,1′-inden]-3′-yl)oxy)-4-fluorophenyl)acetic acid]	< 1
COCCC1(CCOC)CC(Oc2ccccc2CC(=O)O)c2cc(-c3ccc4ccnc(N)c4c3)ccc21 (stereo not shown) [Compound 446f, 2-(2-((6-(1-aminoisoquinolin-7-yl)-3,3-bis(2-methoxyethyl)-2,3-dihydro-1H-inden-1-yl)oxy)phenyl)acetic acid]	< 1

Next, values leading:

IC50 [µM]	Compound
< 1	Nc1nccc2ccc(-c3ccc4c(c3)[C@H](Oc3ccccc3CC(=O)O)CC43CCN(CC(=O)O)CC3)cc12 [Compound 414c, (R)-2-(2-((5-(1-aminoisoquinolin-7-yl)-1′-(carboxymethyl)-2,3-dihydrospiro[indene-1,4′-piperidin]-3-yl)oxy)phenyl)acetic acid]
< 1	CCCN1CCC2(CC1)C[C@@H](Oc1ccccc1CC(=O)O)c1cc(-c3ccc4ccnc(N)c4c3)ccc12 [Compound 416c, (R)-2-(2-((5-(1-aminoisoquinolin-7-yl)-1′-propyl-2,3-dihydrospiro[indene-1,4′-piperidin]-3-yl)oxy)phenyl)acetic acid]
< 1	COc1ccc(CC(=O)O)c(O[C@@H]2CCc3ccc(-c4ccc5ccnc(N)c5c4)cc32)c1 [Compound 419c, (R)-2-(2-((6-(1-aminoisoquinolin-7-yl)-2,3-dihydro-1H-inden-1-yl)oxy)-4-methoxyphenyl)acetic acid]
< 1	COc1ccc(CC(=O)O)c(O[C@@H]2CCc3ccc(-c4cccc5c(N)nccc45)cc32)c1 [Compound 420b, (R)-2-(2-((6-(1-aminoisoquinolin-5-yl)-2,3-dihydro-1H-inden-1-yl)oxy)-4-methoxyphenyl)acetic acid]
< 1	Nc1nccc2ccc(-c3ccc4c(c3)[C@H](Oc3cc(F)ccc3CC(=O)O)CC4)cc12 [Compound 421c, (R)-2-(2-((6-(1-aminoisoquinolin-7-yl)-2,3-dihydro-1H-inden-1-yl)oxy)-4-fluorophenyl)acetic acid]
< 1	Nc1nccc2c(-c3ccc4c(c3)[C@H](Oc3cc(F)ccc3CC(=O)O)CC4)cccc12 [Compound 422b, (R)-2-(2-((6-(1-aminoisoquinolin-5-yl)-2,3-dihydro-1H-inden-1-yl)oxy)-4-fluorophenyl)acetic acid]
< 1	N#Cc1ccc(CC(=O)O)c(O[C@@H]2CCc3ccc(-c4ccc5ccnc(N)c5c4)cc32)c1 [Compound 423c, (R)-2-(2-((6-(1-aminoisoquinolin-7-yl)-2,3-dihydro-1H-inden-1-yl)oxy)-4-cyanophenyl)acetic acid]
< 1	N#Cc1ccc(CC(=O)O)c(O[C@@H]2CCc3ccc(-c4cccc5c(N)nccc45)cc32)c1 [Compound 424b, (R)-2-(2-((6-(1-aminoisoquinolin-5-yl)-2,3-dihydro-1H-inden-1-yl)oxy)-4-cyanophenyl)acetic acid]
< 1	Cc1ccc(CC(=O)O)c(O[C@@H]2CCc3ccc(-c4ccc5ccnc(N)c5c4)cc32)c1 [Compound 425c, (R)-2-(2-((6-(1-aminoisoquinolin-7-yl)-2,3-dihydro-1H-inden-1-yl)oxy)-4-methylphenyl)acetic acid]
< 1	Cc1ccc(CC(=O)O)c(O[C@@H]2CCc3ccc(-c4cccc5c(N)nccc45)cc32)c1 [Compound 426b, (R)-2-(2-((6-(1-aminoisoquinolin-5-yl)-2,3-dihydro-1H-inden-1-yl)oxy)-4-methylphenyl)acetic acid]
